The target in experiment [1] is Calcium/calmodulin-dependent protein kinase type II subunit gamma (Homo sapiens) (UniProt Q13555). The experiment is described as follows: Inhibition of human recombinant CaMK2g at 40 nM related to control ULK1.
In experiment [2] the target is T1, Serine/threonine-protein kinase PLK4 (Homo sapiens) (UniProt O00444).
T1 sequence (whole entry): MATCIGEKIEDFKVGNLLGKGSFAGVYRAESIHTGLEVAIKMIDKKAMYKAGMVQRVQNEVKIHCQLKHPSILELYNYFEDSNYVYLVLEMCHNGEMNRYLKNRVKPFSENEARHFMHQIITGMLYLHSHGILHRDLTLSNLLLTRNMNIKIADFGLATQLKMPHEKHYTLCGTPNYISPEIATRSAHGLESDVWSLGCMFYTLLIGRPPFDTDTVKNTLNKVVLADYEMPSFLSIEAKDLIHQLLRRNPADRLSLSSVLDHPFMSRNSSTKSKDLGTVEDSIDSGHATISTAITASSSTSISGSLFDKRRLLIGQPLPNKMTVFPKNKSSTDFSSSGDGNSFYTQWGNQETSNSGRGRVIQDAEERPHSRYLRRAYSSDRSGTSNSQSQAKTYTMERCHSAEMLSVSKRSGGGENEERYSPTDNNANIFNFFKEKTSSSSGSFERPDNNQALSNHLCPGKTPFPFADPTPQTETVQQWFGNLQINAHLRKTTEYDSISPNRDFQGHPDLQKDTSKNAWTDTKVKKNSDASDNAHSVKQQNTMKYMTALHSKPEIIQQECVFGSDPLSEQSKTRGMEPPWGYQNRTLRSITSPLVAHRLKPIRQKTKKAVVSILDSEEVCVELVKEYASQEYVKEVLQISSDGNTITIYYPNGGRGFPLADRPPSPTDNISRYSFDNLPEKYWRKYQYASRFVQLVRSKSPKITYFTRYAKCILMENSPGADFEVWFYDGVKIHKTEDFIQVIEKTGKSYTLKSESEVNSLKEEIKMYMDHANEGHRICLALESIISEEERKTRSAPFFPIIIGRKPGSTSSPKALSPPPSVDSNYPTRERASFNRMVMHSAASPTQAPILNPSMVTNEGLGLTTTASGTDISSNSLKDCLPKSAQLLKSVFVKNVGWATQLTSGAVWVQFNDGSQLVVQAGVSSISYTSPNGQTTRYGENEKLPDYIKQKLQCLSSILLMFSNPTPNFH
The experiment is described as follows: Inhibition of human recombinant PLK4 at 40 nM in presence of ATP by radiometric assay relative to control.

The target of experiment [3] is 3-phosphoinositide-dependent protein kinase 1 (Homo sapiens) (UniProt O15530). The experiment is described as follows: Inhibition of human recombinant PDK1 at 40 nM related to control ULK1.
Experiment [4] has as its target Wee1-like protein kinase 2 (Homo sapiens) (UniProt P0C1S8). The experiment is described as follows: Inhibition of human recombinant Wee1B at 40 nM in presence of ATP by radiometric assay relative to control.
The target in experiment [5] is T2, Tyrosine-protein kinase ZAP-70 (Homo sapiens) (UniProt P43403).
T2 sequence (whole entry): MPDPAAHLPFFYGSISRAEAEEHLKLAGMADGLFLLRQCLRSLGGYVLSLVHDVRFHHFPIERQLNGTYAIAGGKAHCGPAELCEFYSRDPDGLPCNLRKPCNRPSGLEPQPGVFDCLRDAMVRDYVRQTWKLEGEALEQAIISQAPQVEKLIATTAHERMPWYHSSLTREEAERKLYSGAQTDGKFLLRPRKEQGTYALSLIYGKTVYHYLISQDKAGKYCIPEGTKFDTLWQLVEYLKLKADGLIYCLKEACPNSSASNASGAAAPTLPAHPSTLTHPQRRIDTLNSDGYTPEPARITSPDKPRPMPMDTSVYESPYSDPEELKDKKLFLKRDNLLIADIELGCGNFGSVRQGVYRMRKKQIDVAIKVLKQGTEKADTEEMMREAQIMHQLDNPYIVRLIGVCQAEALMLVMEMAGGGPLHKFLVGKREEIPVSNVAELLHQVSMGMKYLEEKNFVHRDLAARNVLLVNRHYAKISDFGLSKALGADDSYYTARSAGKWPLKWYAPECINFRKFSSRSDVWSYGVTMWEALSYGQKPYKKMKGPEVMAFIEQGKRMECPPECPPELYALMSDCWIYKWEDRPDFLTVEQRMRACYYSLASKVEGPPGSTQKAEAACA
The experiment is described as follows: Inhibition of human recombinant ZAP70 at 40 nM in presence of ATP by radiometric assay relative to control.

In experiment [6] the target is Serine/threonine-protein kinase 32B (Homo sapiens) (UniProt Q9NY57). The experiment is described as follows: Inhibition of human recombinant YANK2 at 500 nM related to control ULK1.
Experiment [7] has as its target Protein kinase C theta type (Homo sapiens) (UniProt Q04759). The experiment is described as follows: Inhibition of human recombinant PKCt at 500 nM in presence of ATP by radiometric assay relative to control.
The species named for experiment [8] is Homo sapiens. The experiment is described as follows: Inhibition of human recombinant CK1d at 15 nM related to control ULK1.
The target of experiment [9] is T3, Serine/threonine-protein kinase DCLK3 (Homo sapiens) (UniProt Q9C098).
T3 sequence (whole entry): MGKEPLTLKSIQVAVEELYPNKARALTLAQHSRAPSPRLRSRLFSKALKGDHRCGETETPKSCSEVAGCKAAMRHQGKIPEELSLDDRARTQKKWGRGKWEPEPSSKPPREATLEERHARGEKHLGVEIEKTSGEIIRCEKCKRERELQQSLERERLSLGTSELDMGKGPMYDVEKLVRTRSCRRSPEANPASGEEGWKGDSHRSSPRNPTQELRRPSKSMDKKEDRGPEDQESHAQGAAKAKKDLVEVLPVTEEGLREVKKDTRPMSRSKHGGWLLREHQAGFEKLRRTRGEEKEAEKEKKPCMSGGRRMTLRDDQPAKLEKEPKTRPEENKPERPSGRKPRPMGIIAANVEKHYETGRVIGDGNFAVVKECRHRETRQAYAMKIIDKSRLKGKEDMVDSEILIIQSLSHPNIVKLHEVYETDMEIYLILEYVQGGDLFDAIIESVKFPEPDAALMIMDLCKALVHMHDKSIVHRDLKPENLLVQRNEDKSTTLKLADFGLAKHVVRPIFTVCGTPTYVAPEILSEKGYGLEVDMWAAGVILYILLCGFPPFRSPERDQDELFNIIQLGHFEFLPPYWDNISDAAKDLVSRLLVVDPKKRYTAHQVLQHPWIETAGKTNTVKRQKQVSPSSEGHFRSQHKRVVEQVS
The experiment is described as follows: Inhibition of human recombinant DCAMKL3 at 15 nM in presence of ATP by radiometric assay relative to control.

Experiment [10] deals with Casein kinase I isoform gamma-2 (Homo sapiens) (UniProt P78368). The experiment is described as follows: Inhibition of human recombinant CK1g2 at 15 nM in presence of ATP by radiometric assay relative to control.
The target of experiment [11] is Serine/threonine-protein kinase/endoribonuclease IRE1 (Homo sapiens) (UniProt O75460). The experiment is described as follows: Inhibition of human recombinant IRE1 at 15 nM in presence of ATP by radiometric assay relative to control.

SMILES strings stand for the structures.

Chain of Wee1-like protein kinase 2 (Homo sapiens) (P0C1S8 whole entry, looked up): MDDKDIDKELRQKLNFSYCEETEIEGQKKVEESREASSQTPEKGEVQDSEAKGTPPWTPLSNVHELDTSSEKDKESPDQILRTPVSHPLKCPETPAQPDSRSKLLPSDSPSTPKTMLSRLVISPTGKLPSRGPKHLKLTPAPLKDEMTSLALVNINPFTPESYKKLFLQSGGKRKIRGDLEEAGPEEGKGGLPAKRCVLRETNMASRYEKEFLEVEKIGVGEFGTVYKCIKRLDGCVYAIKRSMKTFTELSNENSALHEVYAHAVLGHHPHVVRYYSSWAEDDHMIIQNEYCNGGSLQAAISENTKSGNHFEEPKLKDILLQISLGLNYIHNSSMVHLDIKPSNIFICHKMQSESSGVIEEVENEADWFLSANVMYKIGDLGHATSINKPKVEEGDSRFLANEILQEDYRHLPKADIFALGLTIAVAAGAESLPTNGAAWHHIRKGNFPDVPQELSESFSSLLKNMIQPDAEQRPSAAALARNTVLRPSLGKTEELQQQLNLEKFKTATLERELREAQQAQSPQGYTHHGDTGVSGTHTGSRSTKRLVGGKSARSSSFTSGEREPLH
Chain of Protein kinase C theta type (Homo sapiens) (Q04759 whole entry, looked up): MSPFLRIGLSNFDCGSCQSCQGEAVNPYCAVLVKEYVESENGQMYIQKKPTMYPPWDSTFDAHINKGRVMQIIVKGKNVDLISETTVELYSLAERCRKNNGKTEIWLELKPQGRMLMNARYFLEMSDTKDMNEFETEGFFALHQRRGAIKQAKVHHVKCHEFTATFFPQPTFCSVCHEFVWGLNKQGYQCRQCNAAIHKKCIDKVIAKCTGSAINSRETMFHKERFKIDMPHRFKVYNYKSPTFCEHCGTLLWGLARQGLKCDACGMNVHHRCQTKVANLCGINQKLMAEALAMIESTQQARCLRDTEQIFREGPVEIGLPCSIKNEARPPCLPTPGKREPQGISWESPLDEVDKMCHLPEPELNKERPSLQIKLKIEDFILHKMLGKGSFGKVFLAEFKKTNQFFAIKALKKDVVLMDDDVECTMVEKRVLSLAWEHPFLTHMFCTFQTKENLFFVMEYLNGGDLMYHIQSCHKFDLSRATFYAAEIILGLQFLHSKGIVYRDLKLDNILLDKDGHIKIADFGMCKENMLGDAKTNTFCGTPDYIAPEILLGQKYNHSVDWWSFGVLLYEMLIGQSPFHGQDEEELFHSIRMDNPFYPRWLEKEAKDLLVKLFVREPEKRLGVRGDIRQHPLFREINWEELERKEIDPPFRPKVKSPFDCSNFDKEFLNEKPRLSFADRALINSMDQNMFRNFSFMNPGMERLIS
Chain of Serine/threonine-protein kinase 32B (Homo sapiens) (Q9NY57 whole entry): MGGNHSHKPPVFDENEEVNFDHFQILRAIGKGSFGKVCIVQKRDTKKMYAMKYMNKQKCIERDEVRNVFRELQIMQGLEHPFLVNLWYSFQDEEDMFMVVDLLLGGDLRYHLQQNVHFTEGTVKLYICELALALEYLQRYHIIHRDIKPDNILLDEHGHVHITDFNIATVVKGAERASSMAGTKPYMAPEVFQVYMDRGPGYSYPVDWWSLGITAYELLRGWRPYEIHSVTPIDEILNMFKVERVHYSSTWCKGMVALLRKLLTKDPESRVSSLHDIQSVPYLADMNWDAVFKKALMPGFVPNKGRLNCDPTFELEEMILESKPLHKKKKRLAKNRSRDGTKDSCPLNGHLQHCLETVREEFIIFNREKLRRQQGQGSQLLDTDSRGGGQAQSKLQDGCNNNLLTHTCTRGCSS
Chain of 3-phosphoinositide-dependent protein kinase 1 (Homo sapiens) (O15530 whole entry, looked up): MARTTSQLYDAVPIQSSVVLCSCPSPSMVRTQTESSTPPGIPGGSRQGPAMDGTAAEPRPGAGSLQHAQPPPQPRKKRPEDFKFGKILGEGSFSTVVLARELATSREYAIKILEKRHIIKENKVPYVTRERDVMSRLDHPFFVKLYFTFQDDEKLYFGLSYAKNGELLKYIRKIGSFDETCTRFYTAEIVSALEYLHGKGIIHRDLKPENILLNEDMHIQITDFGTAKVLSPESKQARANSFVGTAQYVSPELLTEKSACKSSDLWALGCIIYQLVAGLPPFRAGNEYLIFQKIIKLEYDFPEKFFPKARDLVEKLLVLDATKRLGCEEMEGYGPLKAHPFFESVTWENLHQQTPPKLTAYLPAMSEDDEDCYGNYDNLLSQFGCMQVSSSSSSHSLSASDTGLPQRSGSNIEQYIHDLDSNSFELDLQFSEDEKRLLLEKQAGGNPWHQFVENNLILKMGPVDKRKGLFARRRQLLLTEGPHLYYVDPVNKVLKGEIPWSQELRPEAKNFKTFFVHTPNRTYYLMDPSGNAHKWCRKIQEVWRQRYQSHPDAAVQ
Chain of Calcium/calmodulin-dependent protein kinase type II subunit gamma (Homo sapiens) (Q13555 whole entry): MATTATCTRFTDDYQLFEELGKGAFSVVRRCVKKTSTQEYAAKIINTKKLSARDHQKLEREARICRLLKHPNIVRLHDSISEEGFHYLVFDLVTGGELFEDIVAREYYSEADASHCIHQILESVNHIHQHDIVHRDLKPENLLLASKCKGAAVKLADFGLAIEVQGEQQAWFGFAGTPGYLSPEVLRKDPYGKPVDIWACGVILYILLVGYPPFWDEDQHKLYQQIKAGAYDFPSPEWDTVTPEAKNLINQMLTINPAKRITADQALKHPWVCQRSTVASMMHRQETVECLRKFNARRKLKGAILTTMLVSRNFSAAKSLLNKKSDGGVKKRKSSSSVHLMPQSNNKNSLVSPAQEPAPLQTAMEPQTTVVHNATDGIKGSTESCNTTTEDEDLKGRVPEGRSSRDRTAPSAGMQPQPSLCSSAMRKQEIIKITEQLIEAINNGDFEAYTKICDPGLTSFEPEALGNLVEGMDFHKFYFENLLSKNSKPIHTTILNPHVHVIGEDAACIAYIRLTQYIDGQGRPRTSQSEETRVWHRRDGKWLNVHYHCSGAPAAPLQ
Chain of Casein kinase I isoform gamma-2 (Homo sapiens) (P78368 whole entry, looked up, canonical isoform): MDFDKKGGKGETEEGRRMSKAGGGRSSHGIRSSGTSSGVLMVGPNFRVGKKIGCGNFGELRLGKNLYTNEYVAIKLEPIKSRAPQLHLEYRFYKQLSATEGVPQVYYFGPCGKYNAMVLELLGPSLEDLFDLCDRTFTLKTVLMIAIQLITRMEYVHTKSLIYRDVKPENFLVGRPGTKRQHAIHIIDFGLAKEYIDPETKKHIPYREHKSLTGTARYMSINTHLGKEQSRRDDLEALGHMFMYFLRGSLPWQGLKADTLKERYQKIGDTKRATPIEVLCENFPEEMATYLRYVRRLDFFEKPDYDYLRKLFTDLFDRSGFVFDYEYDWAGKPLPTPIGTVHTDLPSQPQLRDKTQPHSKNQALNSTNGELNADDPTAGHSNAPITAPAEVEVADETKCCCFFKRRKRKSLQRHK
Chain of Serine/threonine-protein kinase/endoribonuclease IRE1 (Homo sapiens) (O75460 19-977 limits assumed): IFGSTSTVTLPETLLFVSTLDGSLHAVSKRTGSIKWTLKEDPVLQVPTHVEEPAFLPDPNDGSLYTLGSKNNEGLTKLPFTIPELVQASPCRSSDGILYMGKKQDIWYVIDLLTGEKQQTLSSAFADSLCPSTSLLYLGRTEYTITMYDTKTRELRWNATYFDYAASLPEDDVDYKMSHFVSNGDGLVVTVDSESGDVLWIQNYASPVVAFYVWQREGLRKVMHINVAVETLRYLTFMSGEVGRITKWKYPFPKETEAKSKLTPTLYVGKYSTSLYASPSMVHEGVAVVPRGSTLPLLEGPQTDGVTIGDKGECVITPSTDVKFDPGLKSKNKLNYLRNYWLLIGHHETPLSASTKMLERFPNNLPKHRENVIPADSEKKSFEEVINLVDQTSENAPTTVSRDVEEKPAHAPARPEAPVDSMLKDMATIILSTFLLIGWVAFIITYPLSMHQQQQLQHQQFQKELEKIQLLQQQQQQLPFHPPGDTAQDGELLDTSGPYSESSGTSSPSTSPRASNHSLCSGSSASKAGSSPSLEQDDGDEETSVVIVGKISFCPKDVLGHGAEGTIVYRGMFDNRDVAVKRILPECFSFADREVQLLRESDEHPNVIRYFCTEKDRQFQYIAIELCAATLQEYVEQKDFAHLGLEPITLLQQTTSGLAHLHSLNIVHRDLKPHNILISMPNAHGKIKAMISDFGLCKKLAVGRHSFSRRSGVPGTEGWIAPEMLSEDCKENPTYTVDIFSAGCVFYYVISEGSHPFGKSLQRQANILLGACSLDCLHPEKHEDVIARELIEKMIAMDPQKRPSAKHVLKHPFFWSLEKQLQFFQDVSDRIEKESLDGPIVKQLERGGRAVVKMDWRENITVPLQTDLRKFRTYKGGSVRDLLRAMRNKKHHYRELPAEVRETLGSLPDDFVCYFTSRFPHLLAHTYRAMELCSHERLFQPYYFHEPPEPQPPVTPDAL

With `O=C(N[C@@H](C1CC1)C(F)(F)F)c1cc(-c2cnn3cc(-c4ccc(F)cc4)cnc23)cs1`, the fold change (FC) is 0.01 in experiment [1] and 0 in [3]. Moreover, the inhibition in experiment [2] turned out to be 7%; in experiment [4] it was 0%; in [5], 0%.
With `CNC(=O)c1ccccc1Oc1nc(Nc2cc(OC)c(OC)c(OC)c2)ncc1Br`, the fold change (FC) in experiment [6] was determined as 0.03. Further, in [7], the inhibition was 0%.
With `CC(C)[C@H](NC(=O)c1cc(-c2cnn3cc(-c4ccc(OCCN5CCCCC5)cc4)cnc23)cs1)C(F)(F)F`, the fold change (FC) in experiment [8] is 0.03. Moreover, the results for the inhibition in [9], in experiment [10] and in experiment [11] were 35%, 0% and 0%, respectively.

What is called inhibition is the change of the read-out against control, counted positive when it falls.

Source of the values: ChEMBL document CHEMBL5653631, “A Potent and Selective ULK1 Inhibitor Suppresses Autophagy and Sensitizes Cancer Cells to Nutrient Stress” (iScience, 2018).
